In patent US9872868B2, “Mitochondrially-targeted electrophilic compounds and methods of use for the treatment of cancer” (UAB Research Foundation, priority 2013, dated 2018):

Columns and labels:
[1] = cited from earlier work
[2] = i.p. injection; cited from earlier work
[3] = system: breast cancer cells; settings: by altering p38 and ERK signaling; cited from earlier work
[4] = system: HIF-1α; assay: HIF-1α stabilization by western blotting; format: cell-based, human
Procedure: FIG. 5. Effects of an MTE on HIF-1α. MDA-MB-231 cells were incubated for 8 h under normoxia or hypoxia and were treated with either 10 μM IBTP or bTPP for 4 h. The lysates were collected and analyzed for HIF-1α stabilization by western blotting.
However, the mechanism for this decrease in HIF-1α protein is not clear. One possibility is that IBTP inhibits the enzyme within the Krebs cycle, KGDH, that is responsible for converting α-ketoglutarate to succinyl-CoA. Inhibition of this enzyme would cause an increase in α-ketoglutarate, which is a cofactor for the prolyl hydroxylase involved in HIF-1α degradation. We propose that MTEs affect HIF-1α stabilization at least in part, by modulating the activity of KGDH and increasing intracellular levels of α-ketoglutarate. KGDH was previously shown to be among the proteins which form covalent adducts with IBTP (13). Importantly, decreased stabilization of HIF-1α prevents the bioenergetic adaptation to hypoxia in breast cancer cells, as we have recently shown (11)(in press, see Appendix 1).

[5] = system: MCF10A nontumorigenic cells; assay: Sensitization to doxorubicin in nontumorigenic cells; format: cell-based; settings: data not shown
[6] = system: MDA-MB 231 breast cancer cells; assay: Cell adhesion (reattachment after scraping), viable non-adherent cells counted with trypan blue; format: cell-based, human
Procedure: (§1) FIG. 7. Two ×10^5 cells/plate were plated on a 6-well plate, 24 hrs after plating cells were starved in 0.5% FCS containing media for another 24 hrs. Cells were then treated for another 24 hrs with increasing doses of IBTP or the non-reactive analog butyl-triphenylphosphonium (BTPP) as a control. Cells were scraped and made into single cell suspension. Cells were counted and plated in 100-mm tissue culture plate. After 24 hrs the media is collected, centrifuged and the viable cells were counted using trypan blue.
FIG. 2. Two×10^5 cells/plate were plated on a 6-well plate, 24 hrs after plating cells were starved in 0.5% FCS containing media for another 24 hrs.
as §1, with “Cells” for “FIG. 7. Two ×10^5 cells/plate were plated on a 6-well plate, 24 hrs after plating cells were starved in 0.5% FCS containing media for another 24 hrs. Cells”

[7] = system: cancer or noncancer cells; assay: Cytotoxicity of the MTE alone; format: cell-based; settings: data not shown
[8] = system: MDA-MB 231 breast cancer cells; assay: Cell death and clonogenic survival; format: cell-based
[9] = system: MDA-MB 231 cells; assay: Mitochondrial bioenergetic assay, Extracellular Flux Analyzer XF-24 (OCR); format: cell-based, human; settings: 5 μM, 4 h, 0.5% serum containing medium, vs EtOH vehicle
Procedure: FIG. 3. Bioenergetic response of breast cancer cells to MTE. Panel A. A schematic representation of the mitochondrial bioenergetic assay in an Extracellular Flux Analyzer XF-24 (Seahorse Biosciences). Panel A: Sequential injections of oligomycin, FCCP, and Antimycin A allow determination of the component mitochondrial bioenergetic parameters. Panel B. MDA-MB 231 cells were treated for 4 h in 0.5% serum containing medium with EtOH vehicle, IBTP (5 μM), or BTPP (5 μM) and the OCR measured over time. Panel C. Comparison of basal OCR, ATP-dependent OCR, and reserve capacity (RC) with veh and IBTP treatments. Each point is the mean of a minimum of 3 determinations±SEM, from at least 2 independent experiments. Asterisks represent p<0.05. Recent work has shown that MTEs can modulate cell signaling, and depending upon the specific MTE, may do so without causing overt cellular toxicity to cancer cells or normal cells (12). MTEs are small molecules which consist of a triphenylphosphonium lipophilic cationic moiety and a leaving group such as iodide, which renders the adjacent carbon electrophilic. […] We have previously shown reserve capacity is indicative of the cells' ability to withstand a “second hit” of oxidative stress (7).

[10] = system: aconitase (ACO), isocitrate dehydrogenase (IDH), and α-ketoglutarate dehydrogenase (KGDH); settings: cited from earlier work

## COC1=C(OC)C(=O)C(CCCCCCCCCC[P+](c2ccccc2)(c2ccccc2)c2ccccc2)=C(C)C1=O [mitoQ]
[1]; clinical trials
  oral bioavailability: orally bioavailable
  tolerability: well tolerated
[1]; phase I clinical trials
  efficacy in Parkinson's Disease: not found to be effective
[2]
  dose up to which no toxicity was observed: up to 750 nmol mitoQ/mouse

## CCCCC/C=C/C=C1/C(=O)C=C[C@@H]1C/C=C\CCCC(=O)O [15d-PGJ2, 15 deoxy-prostaglandin J2]
[3]
  migration of breast cancer cells: inhibits migration

## ICCCC[P+](c1ccccc1)(c1ccccc1)c1ccccc1 [IBTP, iodobutyl triphenylphosphonium iodide]
[4]; MDA-MB-231, 10 μM, 4 h, normoxia or hypoxia 8 h
  constitutive and hypoxia-inducible expression of HIF-1α protein: inhibits both constitutive and hypoxia-inducible expression of HIF-1α protein
[4]; MDA-MB-231, data not shown
  basal HIF-1α stabilization: inhibited basal HIF-1α stabilization both time and dose-dependently
[5]
  sensitization to doxorubicin: did not sensitize
[6]; 10 μM, 24 h
  reattachment to tissue culture plates after scraping: failed to reattach
[6]; Homo sapiens, MDA-MB-231, read-out: cells whose adhesion is inhibited after detachment
  inhibition at 10 µM: ~15%
[7]
  cytotoxicity: not cytotoxic
[8]; 10 μM, 24 h
  overt cell death: no evidence of overt cell death
[8]; 10 μM, data not shown
  clonogenic survival: significantly decreased clonogenic survival
[8]; concentrations higher than 10 μM, MDA-MB 231 and other cell types
  cytotoxicity at higher concentrations: can be cytotoxic
[9]
  basal OCR: decrease basal OCR
  reserve capacity (RC): completely abrogates the reserve capacity
[10]
  covalent adducts with Krebs cycle proteins: forms covalent adducts
